Source: US6914045B2, “Glycopeptide antibiotics” (Wyeth Holdings Corporation, priority 2001, dated 2005)
≈ marks a conversion by molar mass, not a printed value.

Columns and labels:
Assay in all cases: in vitro antibacterial evaluation, MIC by broth dilution
Type in all cases: cell-based
Enterococcus sp. = conditions: broth dilution, 18 hours at 35° C.
Summary of the method: (§1)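 Following National Committee for Clinical Laboratory Standards recommendations (M7-A2), susceptibility was measured by dilution in Muller-Hinton II […]. Bacteria were seeded at 5×10^5 CFU/mL against compound concentrations from 64 down to 0.06 μg/mL.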

Staphylococcus sp. = conditions: broth dilution, 18 hours at 35° C.
Summary of the method: as §1

Streptococcus sp. = conditions: broth dilution, 18 hours at 35° C.
Summary of the method: as §1

Escherichia coli = conditions: 18 hours at 35° C.

MIC Enterococcus avium (GC 4558) (Enterococcus sp.): 16 µg/mL (≈ 10.9 µM)
MIC Enterococcus faecalis (ATCC 29212) (Enterococcus sp.): 32 µg/mL (≈ 21.7 µM)
MIC Enterococcus faecalis (GC 2242) (Enterococcus sp.): 16 µg/mL (≈ 10.9 µM)
MIC Enterococcus faecalis (GC 2691) (Enterococcus sp.): 8 µg/mL (≈ 5.43 µM)
MIC Enterococcus faecalis (GC 3059) (Enterococcus sp.): 32 µg/mL (≈ 21.7 µM)
MIC Enterococcus faecalis (GC 4552) (Enterococcus sp.): 32 µg/mL (≈ 21.7 µM)
MIC Enterococcus faecalis (GC 4553) (Enterococcus sp.): 16 µg/mL (≈ 10.9 µM)
MIC Enterococcus faecalis (GC 4554) (Enterococcus sp.): 32 µg/mL (≈ 21.7 µM)
MIC Enterococcus faecalis (GC 6189) (Enterococcus sp.): 16 µg/mL (≈ 10.9 µM)
MIC Enterococcus faecium (GC 2243) (Enterococcus sp.): 32 µg/mL (≈ 21.7 µM)
MIC Enterococcus faecium (GC 4556) (Enterococcus sp.): 32 µg/mL (≈ 21.7 µM)
MIC Enterococcus faecium (GC 4557) (Enterococcus sp.): 32 µg/mL (≈ 21.7 µM)
MIC Enterococcus faecalis (ATCC 29212) (Enterococcus sp.; inoculum 5×10^5 CFU/mL, strain ATCC 29212): 32 µg/mL (≈ 21.7 µM)
MIC Enterococcus faecalis (GC 2242) (Enterococcus sp.; inoculum 5×10^5 CFU/mL, strain GC 2242): 16 µg/mL (≈ 10.9 µM)
MIC Enterococcus faecium (GC 2243) (Enterococcus sp.; inoculum 5×10^5 CFU/mL, strain GC 2243): 32 µg/mL (≈ 21.7 µM)
MIC Enterococcus faecalis (GC 2691) (Enterococcus sp.; inoculum 5×10^5 CFU/mL, strain GC 2691): 8 µg/mL (≈ 5.43 µM)
MIC Enterococcus faecalis (GC 3059) (Enterococcus sp.; inoculum 5×10^5 CFU/mL, strain GC 3059): 32 µg/mL (≈ 21.7 µM)
MIC Enterococcus faecalis (GC 4552) (Enterococcus sp.; inoculum 5×10^5 CFU/mL, strain GC 4552): 32 µg/mL (≈ 21.7 µM)
MIC Enterococcus faecalis (GC 4553) (Enterococcus sp.; inoculum 5×10^5 CFU/mL, strain GC 4553): 16 µg/mL (≈ 10.9 µM)
MIC Enterococcus faecalis (GC 4554) (Enterococcus sp.; inoculum 5×10^5 CFU/mL, strain GC 4554): 32 µg/mL (≈ 21.7 µM)
MIC Enterococcus faecium (GC 4556) (Enterococcus sp.; inoculum 5×10^5 CFU/mL, strain GC 4556): 32 µg/mL (≈ 21.7 µM)
MIC Enterococcus faecium (GC 4557) (Enterococcus sp.; inoculum 5×10^5 CFU/mL, strain GC 4557): 32 µg/mL (≈ 21.7 µM)
MIC Enterococcus avium (GC 4558) (Enterococcus sp.; inoculum 5×10^5 CFU/mL, strain GC 4558): 16 µg/mL (≈ 10.9 µM)
MIC Enterococcus faecalis (GC 6189) (Enterococcus sp.; inoculum 5×10^5 CFU/mL, strain GC 6189): 16 µg/mL (≈ 10.9 µM)
MIC Staphylococcus aureus (ATCC 29213) (Staphylococcus sp.; strain ATCC 29213): 32 µg/mL (≈ 21.7 µM)
MIC Staphylococcus aureus (GC 1131) (Staphylococcus sp.; strain GC 1131): 32 µg/mL (≈ 21.7 µM)
MIC Staphylococcus aureus (GC 3051) (Staphylococcus sp.; strain GC 3051): 32 µg/mL (≈ 21.7 µM)
MIC Staphylococcus aureus (GC 3053) (Staphylococcus sp.; strain GC 3053): 32 µg/mL (≈ 21.7 µM)
MIC Staphylococcus aureus (GC 4541) (Staphylococcus sp.; strain GC 4541): 32 µg/mL (≈ 21.7 µM)
MIC Staphylococcus aureus (GC 4542) (Staphylococcus sp.; strain GC 4542): 32 µg/mL (≈ 21.7 µM)
MIC Staphylococcus aureus-SMITH (GC 4543) (Staphylococcus sp.; strain GC 4543): 32 µg/mL (≈ 21.7 µM)
MIC Staphylococcus aureus (GC 4544) (Staphylococcus sp.; strain GC 4544): 32 µg/mL (≈ 21.7 µM)
MIC Staphylococcus aureus (GC 4545) (Staphylococcus sp.; strain GC 4545): 32 µg/mL (≈ 21.7 µM)
MIC Coagulase Negative Staphylococcus (GC 4547) (Staphylococcus sp.; strain GC 4547): 32 µg/mL (≈ 21.7 µM)
MIC Coagulase Negative Staphylococcus (GC 4548) (Staphylococcus sp.; strain GC 4548): 32 µg/mL (≈ 21.7 µM)
MIC Coagulase Negative Staphylococcus (GC 4549) (Staphylococcus sp.; strain GC 4549): 8 µg/mL (≈ 5.43 µM)
MIC Coagulase Negative Staphylococcus (GC 4551) (Staphylococcus sp.; strain GC 4551): 32 µg/mL (≈ 21.7 µM)
MIC Coagulase Negative Staphylococcus (GC 6257) (Staphylococcus sp.; strain GC 6257): 32 µg/mL (≈ 21.7 µM)
MIC Streptococcus agalactiae (GC 4564) (Streptococcus sp.): 0.25 µg/mL (≈ 0.17 µM)
MIC Streptococcus pneumoniae (ATCC 6301) (Streptococcus sp.): 0.25 µg/mL (≈ 0.17 µM)
MIC Streptococcus pneumoniae (GC 1894) (Streptococcus sp.): <0.06 µg/mL
MIC Streptococcus pneumoniae (GC 4565) (Streptococcus sp.): <0.06 µg/mL
MIC Streptococcus pyogenes (GC 4563) (Streptococcus sp.): 2 µg/mL (≈ 1.36 µM)
MIC Streptococcus pneumoniae (ATCC 6301) (Streptococcus sp.; inoculum 5×10^5 CFU/mL, strain ATCC 6301): 0.25 µg/mL (≈ 0.17 µM)
MIC Streptococcus pneumoniae (GC 1894) (Streptococcus sp.; inoculum 5×10^5 CFU/mL, strain GC 1894): <0.06 µg/mL
MIC Streptococcus pyogenes (GC 4563) (Streptococcus sp.; inoculum 5×10^5 CFU/mL, strain GC 4563): 2 µg/mL (≈ 1.36 µM)
MIC Streptococcus agalactiae (GC 4564) (Streptococcus sp.; inoculum 5×10^5 CFU/mL, strain GC 4564): 0.25 µg/mL (≈ 0.17 µM)
MIC Streptococcus pneumoniae (GC 4565) (Streptococcus sp.; inoculum 5×10^5 CFU/mL, strain GC 4565): <0.06 µg/mL
MIC Escherichia coli (ATCC 25922) (Escherichia coli): >64 µg/mL
MIC Escherichia coli (GC 4559) (Escherichia coli): >64 µg/mL
MIC Escherichia coli (GC 4560) (Escherichia coli): 64 µg/mL (≈ 43.4 µM)
SMILES: CC(c1ccccc1)C1NC(=O)CNC(=O)C(CO)NC(=O)C(C(O)C2CNC(=N)N2C2OC(CO)C(O)C(O)C2O)NC(=O)C(C(O)C2CNC(=N)N2)NC(=O)C(Cc2ccc(OC3OC(CO)C(OC4OC5COC6(CCCCCCCCCCCC6)OC5C(O)C4O)C(O)C3O)cc2)NC1=O (stereo not shown) [Example 210]
MIC Staphylococcus haemolyticus (GC 4546) (Staphylococcus sp.; strain GC 4546): 32 µg/mL (≈ 21.7 µM)
